Assay results from article PMC6408838, “Bioassay-guided isolation and identification of gametocytocidal compounds from Artemisia afra (Asteraceae)” (Malaria Journal, 2019).
Values after ≈ are worked out from the molar mass of the structure shown. Values joined by “and” are separate entries in the source; they are usually repeats but may differ in a detail not shown here. Equal entries are not always repeated. Where two headings read alike, the source gives them in different places.

How the values were obtained:
[1] = test system: late-stage gametocytes of Plasmodium falciparum (NF54 strain); assay: pLDH assay, late-stage gametocyte viability; type: cell-based; conditions: 72 + 72 h pLDH assay; for IC50: Plasmodium falciparum, NF54, 72 h
Experimental: (§1) The chloroquine-sensitive P. falciparum (NF54 strain) was cultured as described by […] et al. […] Gametocytogenesis initiation, induction and gametocyte culturing was done as described by Reader et al.. […] Both methylene blue (MB) and artemisinin (ART) was used as gametocytocidal drug controls and chloroquine for asexual drug control. Assay data were normalized against untreated Plasmodium parasites and HepG2 cell controls. […] Data were analysed on Microsoft Excel and sigmoidal dose-response curves were plotted using GraphPad Prism (v5). […] Statistical analysis was carried out on GraphPad Prism (v5) using unpaired Student-t test with a level of significance of P < 0.05.

[2] = test system: mature, stage-V gametocytes (> 90% stage V); design: method as in PMID 26749441; conditions: > 90% stage V gametocytes; cited from earlier work
[3] = test system: HepG2 cells; assay: LDH leakage cytotoxicity assay; type: cell-based; conditions: for cytotoxicity (toxicity): HepG2, at 20 µg/ml; for In vitro cytotoxicity range: HepG2, concentrations of 2.5, 5, 10, and 20 µg/ml
Experimental: (§2) Cytotoxicity assays were assessed on the HepG2 cell line (20,000 cells/well) as previously described. […] was as used as cytotoxic positive control. Assay data were normalized against untreated Plasmodium parasites and HepG2 cell controls. […] Data were analysed on Microsoft Excel and sigmoidal dose-response curves were plotted using GraphPad Prism (v5). Unless otherwise stated, all data have been expressed as mean ± SEM (n ≥ 2, carried out in three technical repeats).

[4] = LDH leakage cytotoxicity assay; type: cell-based; conditions: human, HepG2 cells; HepG2, LDH leakage, positive control, n = 3
Experimental: as §2

[5] = test system: intra-erythrocytic asexual P. falciparum (NF54 strain) parasites; assay: pLDH assay, intra-erythrocytic asexual parasites; type: cell-based, Plasmodium falciparum; conditions: 1% parasitaemia; for IC50 value, Asexual stages: 72 h, n = 2; for IC50: Plasmodium falciparum, NF54, 72 h, n = 2, read-out: IC50 value, Asexual stages (converted)
Experimental: as §1

[6] = test system: early-stage gametocytes (> 85% stage II–III) of P. falciparum (NF54 strain); assay: pLDH assay, early-stage gametocyte viability; type: cell-based, Plasmodium falciparum; conditions: n = 3; for IC50 value, Early stage gametocytes: 1–2% gametocytaemia; for IC50: Plasmodium falciparum, NF54, 1–2% gametocytaemia
Experimental: as §1

[7] = unpaired assays, n = 1, technical triplicate, 10-fold serial dilution, read-out: IC50, late-stage gametocytes (drug controls)
[8] = 1–2% gametocytaemia, n = 3, read-out: IC50 value, Late stage gametocytes

| IC50 value, Asexual stages [5] [µg/mL] | IC50 [5] | Compound | IC50 [1, 7] [µM] | cytotoxicity (toxicity) [3] [%] | In vitro cytotoxicity range [3] | IC50 value, Late stage gametocytes ([1]; 1–2% gametocytaemia, n = 3) [µg/mL] | IC50 [1, 8] | IC50 value, Early stage gametocytes [6] [µg/mL] | IC50 [6] [µM] | further results |
| --- | --- | --- | --- | --- | --- | --- | --- | --- | --- | --- |
|  |  | C[C@@H]1CC[C@H]2[C@@H](C)C(=O)O[C@@H]3O[C@@]4(C)CC[C@@H]1[C@]32OO4 [artemisinin, reference compound] | 0.057 |  |  |  |  |  |  | IC50 [2]: > 12.5 µM |
|  |  | CC[C@H]1CN2CCc3cc(OC)c(OC)cc3[C@@H]2C[C@@H]1C[C@H]1NCCc2cc(OC)c(OC)cc21 [Emetine, reference compound] |  |  |  |  |  |  |  | cytotoxicity ([3]; HepG2, 100 µM, positive control): > 50%; EC50 [4]: 4.7 µg/mL (≈ 9.78 µM) |
| 6.0 (≈ 18.7 µM) | < 10 µg/mL and 18.7 µM | C=C1C(=O)O[C@H]2C1[C@@H](OC(C)=O)CC(=C)[C@]1(O)C=C[C@@](C)(O)[C@H]21 (stereo partly drawn) [Compound 1, 1α,4α-dihydroxybishopsolicepolide] |  | < 10 | 0.03–9.47% | 2 | 6.3 µM | 5.6 ± 0.2 (≈ 17.5 µM) | 17.5 | IC50 value, Late stage gametocytes ([1]; 1–2% gametocytaemia, n = 3, listed as 1α,4α-dihydroxybishopsolicepolide): < 10 µg/mL |
| 3.8 ± 1.2 (≈ 11.3 µM) | 11.3 µM | C=C1C(=O)O[C@H]2[C@H]1[C@@H](OC(C)=O)C[C@@](C)(O)[C@@]13O[C@@H]1[C@@H]1O[C@]1(C)[C@H]23 [Compound 2, yomogiartemin] |  | < 10 | 0.40–8.35% | 5.3 | < 10 µg/mL and 15.8 µM | 4.4 ± 0.3 (≈ 13.1 µM) | 13.1 | IC50 value, Asexual stages ([5]; listed as yomogiartemin): < 10 µg/mL; IC50 value, Early stage gametocytes ([6]; listed as yomogiartemin): < 10 µg/mL |
|  |  | CN(C)c1ccc2nc3ccc(=[N+](C)C)cc-3sc2c1 [Methylene blue, methylene blue, reference compound] | 0.031 |  |  |  |  |  |  |  |
